Experimental data reported in PubChem BioAssay (NCI).
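Protocol summary: plate cells (96-well), add compound at 5 concentrations, incubate 48 h, interpolate endpoints linearly. Definition used: TGI = concentration required for complete inhibition of growth.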

Legend:
Assay in all cases: NCI tumour cell line growth inhibition, 48 h
[1] = test system: OVCAR-8 ovarian
[2] = test system: SNB-75 CNS
[3] = test system: NCI-H226 lung
[4] = test system: SR leukemia
[5] = test system: 786-0 renal
[6] = test system: OVCAR-4 ovarian
[7] = test system: CCRF-CEM leukemia
[8] = test system: MOLT-4 leukemia
[9] = test system: UACC-62 melanoma
[10] = test system: MDA-MB-231 breast
[11] = test system: NCI-H23 lung
[12] = test system: SK-MEL-2 melanoma
[13] = test system: NCI-H522 lung
[14] = test system: HS 578T breast
[15] = test system: OVCAR-3 ovarian
[16] = test system: HCC-2998 colon
[17] = test system: PC-3 prostate
[18] = test system: OVCAR-5 ovarian
[19] = test system: SNB-19 CNS
[20] = test system: SK-OV-3 ovarian
[21] = test system: UO-31 renal
[22] = test system: NCI-H460 lung
[23] = test system: ACHN renal
[24] = test system: MDA-N
[25] = test system: HOP-92 NSCLC
[26] = test system: RXF 393 renal
[27] = test system: IGROV1 ovarian
[28] = test system: MCF7 breast
[29] = test system: M14 melanoma
[30] = test system: U251 CNS
[31] = test system: MDA-MB-435
[32] = test system: HCT-116 colon
[33] = test system: A549 NSCLC
[34] = test system: HCT-15 colon
[35] = test system: HL-60(TB) leukemia
[36] = test system: CAKI-1 renal
[37] = test system: RPMI-8226 leukemia
[38] = test system: BT-549 breast
[39] = test system: SK-MEL-28 melanoma
[40] = test system: SF-295 CNS
[41] = test system: UACC-257 melanoma
[42] = test system: KM12 colon
[43] = test system: SF-539 CNS
[44] = test system: SW-620 colon
[45] = test system: T-47D breast
[46] = test system: DU-145 prostate
[47] = test system: COLO 205 colon
[48] = test system: EKVX NSCLC
[49] = test system: K-562 leukemia
[50] = test system: TK-10 renal
[51] = test system: SK-MEL-5 melanoma
[52] = test system: HT29 colon
[53] = test system: SN12C renal
[54] = test system: NCI/ADR-RES ovarian
[55] = test system: SF-268 CNS
[56] = test system: LOX IMVI melanoma
[57] = test system: HOP-62 NSCLC
[58] = test system: A498 renal
[59] = test system: MALME-3M melanoma

With `NS(=O)(=O)c1ccc(NC(=S)/N=C/c2c(O)c3ccccc3[nH]c2=O)cc1` the TGI [1] was greater than 100 µM, the TGI [2] was greater than 100 µM and the TGI [3] was greater than 100 µM. The TGI [4] was greater than 100 µM, the TGI [5] was greater than 100 µM and the TGI [6] was greater than 100 µM. For the same molecule, the TGI [7] was greater than 100 µM, the TGI [8] was greater than 100 µM and the TGI [9] was greater than 100 µM. The TGI [10] was greater than 100 µM, the TGI [11] was greater than 100 µM and the TGI [12] was greater than 100 µM. It also gave a TGI [13] greater than 100 µM, a TGI [14] greater than 100 µM and a TGI [15] greater than 100 µM. The TGI [16] was greater than 100 µM, the TGI [17] was greater than 100 µM and the TGI [18] was greater than 100 µM. The TGI [19] was greater than 100 µM, the TGI [20] was greater than 100 µM and the TGI [21] was greater than 100 µM. It also gave a TGI [22] greater than 100 µM, a TGI [23] greater than 100 µM and a TGI [24] greater than 100 µM. For the same molecule, the TGI [25] was greater than 100 µM, the TGI [26] was greater than 100 µM and the TGI [27] was greater than 100 µM. For the same molecule, the TGI [28] was greater than 100 µM, the TGI [29] was greater than 100 µM and the TGI [30] was greater than 100 µM. For the same molecule, the TGI [31] was greater than 100 µM, the TGI [32] was greater than 100 µM and the TGI [33] was greater than 100 µM. For the same molecule, the TGI [34] was greater than 100 µM, the TGI [35] was 5.05 µM and the TGI [36] was greater than 100 µM. The TGI [37] was greater than 100 µM, the TGI [38] was greater than 100 µM and the TGI [39] was greater than 100 µM. It also gave a TGI [40] greater than 100 µM, a TGI [41] greater than 100 µM and a TGI [42] greater than 100 µM. It also gave a TGI [43] greater than 100 µM, a TGI [44] greater than 100 µM and a TGI [45] greater than 100 µM. The TGI [46] was greater than 100 µM, the TGI [47] was greater than 100 µM and the TGI [48] was greater than 100 µM. For the same molecule, the TGI [49] was greater than 100 µM, the TGI [50] was greater than 100 µM and the TGI [51] was greater than 100 µM. The TGI [52] was greater than 100 µM, the TGI [53] was greater than 100 µM and the TGI [54] was greater than 100 µM. It also gave a TGI [55] greater than 100 µM, a TGI [56] greater than 100 µM and a TGI [57] greater than 100 µM.
`Cc1nc(C)c(N2CCN(C(=O)NC(CCC(=O)O)C(=O)O)CC2)c(=O)[nH]1` (centres undefined) was tested, and the TGI [1] was greater than 100 µM, the TGI [3] was greater than 100 µM and the TGI [4] was greater than 100 µM. The TGI [5] was greater than 100 µM, the TGI [6] was greater than 100 µM and the TGI [7] was greater than 100 µM. The TGI [8] was greater than 100 µM, the TGI [9] was greater than 100 µM and the TGI [58] was greater than 100 µM. For the same molecule, the TGI [10] was greater than 100 µM, the TGI [11] was greater than 100 µM and the TGI [13] was greater than 100 µM. For the same molecule, the TGI [14] was greater than 100 µM, the TGI [15] was greater than 100 µM and the TGI [16] was greater than 100 µM. For the same molecule, the TGI [17] was greater than 100 µM, the TGI [18] was greater than 100 µM and the TGI [19] was greater than 100 µM. For the same molecule, the TGI [20] was greater than 100 µM, the TGI [21] was greater than 100 µM and the TGI [22] was greater than 100 µM. The TGI [23] was greater than 100 µM, the TGI [24] was greater than 100 µM and the TGI [25] was greater than 100 µM. The TGI [26] was greater than 100 µM, the TGI [27] was greater than 100 µM and the TGI [28] was greater than 100 µM. It also gave a TGI [29] greater than 100 µM, a TGI [30] greater than 100 µM and a TGI [31] greater than 100 µM. It also gave a TGI [32] greater than 100 µM, a TGI [33] greater than 100 µM and a TGI [34] greater than 100 µM. The TGI [35] was greater than 100 µM, the TGI [36] was greater than 100 µM and the TGI [37] was greater than 100 µM. For the same molecule, the TGI [38] was greater than 100 µM, the TGI [39] was greater than 100 µM and the TGI [40] was greater than 100 µM. The TGI [41] was greater than 100 µM, the TGI [42] was greater than 100 µM and the TGI [43] was greater than 100 µM. The TGI [59] was greater than 100 µM, the TGI [44] was greater than 100 µM and the TGI [45] was greater than 100 µM. The TGI [46] was greater than 100 µM, the TGI [47] was greater than 100 µM and the TGI [48] was greater than 100 µM. It also gave a TGI [49] greater than 100 µM, a TGI [50] greater than 100 µM and a TGI [52] greater than 100 µM. It also gave a TGI [53] greater than 100 µM, a TGI [54] greater than 100 µM and a TGI [55] greater than 100 µM. The TGI [56] was greater than 100 µM and the TGI [57] was greater than 100 µM.
`O=c1oc2ccccc2cc1-c1nc2ccccc2c(=O)[nH]1` gave a TGI [1] greater than 100 µM, a TGI [2] greater than 100 µM and a TGI [3] greater than 100 µM. For the same molecule, the TGI [4] was greater than 100 µM, the TGI [5] was greater than 100 µM and the TGI [6] was greater than 100 µM. It also gave a TGI [7] greater than 100 µM, a TGI [8] greater than 100 µM and a TGI [9] greater than 100 µM. For the same molecule, the TGI [10] was greater than 100 µM, the TGI [12] was greater than 100 µM and the TGI [13] was greater than 100 µM. It also gave a TGI [14] greater than 100 µM, a TGI [16] greater than 100 µM and a TGI [17] greater than 100 µM. For the same molecule, the TGI [18] was greater than 100 µM, the TGI [19] was greater than 100 µM and the TGI [20] was greater than 100 µM. It also gave a TGI [21] greater than 100 µM, a TGI [22] greater than 100 µM and a TGI [23] greater than 100 µM. It also gave a TGI [24] greater than 100 µM, a TGI [25] greater than 100 µM and a TGI [26] greater than 100 µM. It also gave a TGI [27] greater than 100 µM, a TGI [28] greater than 100 µM and a TGI [29] greater than 100 µM. For the same molecule, the TGI [30] was greater than 100 µM, the TGI [31] was greater than 100 µM and the TGI [32] was greater than 100 µM. It also gave a TGI [33] greater than 100 µM, a TGI [34] greater than 100 µM and a TGI [35] greater than 100 µM. The TGI [36] was greater than 100 µM, the TGI [37] was greater than 100 µM and the TGI [38] was greater than 100 µM. It also gave a TGI [39] greater than 100 µM, a TGI [40] greater than 100 µM and a TGI [41] greater than 100 µM. The TGI [42] was greater than 100 µM, the TGI [43] was greater than 100 µM and the TGI [59] was greater than 100 µM. For the same molecule, the TGI [44] was greater than 100 µM, the TGI [45] was greater than 100 µM and the TGI [46] was greater than 100 µM. It also gave a TGI [47] greater than 100 µM, a TGI [48] greater than 100 µM and a TGI [49] greater than 100 µM. The TGI [50] was greater than 100 µM, the TGI [51] was greater than 100 µM and the TGI [52] was greater than 100 µM. It also gave a TGI [53] greater than 100 µM, a TGI [54] greater than 100 µM and a TGI [55] greater than 100 µM. For the same molecule, the TGI [56] was greater than 100 µM and the TGI [57] was greater than 100 µM.
